Among the test systems are Malme-3M; HCT-15; SNB-19; MOLT-4; U-251; OVCAR-3; CCRF-CEM; MDA-N; A498; Hs-578T; HOP-62; RXF 393; 786-0; MDA-MB-435; K562; NCI-H23; A549; OVCAR-4; NCI/ADR-RES; ACHN.
Assay in all cases: inhibition of tumour cell growth, NCI panel, 48 h

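Exposure lasted 48 hours, with cells grown in 96-well plates and compounds tested at five concentrations. GI50 marks 50% less growth.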 Activity calls are given as the source filed them. Cut-off read from the data, not from the text of the source: active = GI50 up to about 1.1 µM and inactive = higher.

In the case of `CC(=O)Oc1ccc2c(C)cc(=O)oc2c1`, the GI50 in the test with Malme-3M is > 100 µM (inactive); in the test with HCT-15 it was greater than 100 µM; in the test with SNB-19 it was > 100 µM (inactive); in the test on MOLT-4 it was > 100 µM (inactive); in the test on U-251 it was > 100 µM (inactive); in the test on OVCAR-3, > 100 µM (inactive). The GI50 with CCRF-CEM, in the test on MDA-N, in the test on A498, with Hs-578T, in the test with HOP-62 and in the test on RXF 393 was > 100 µM (inactive) each time. Also, the GI50 with 786-0, with MDA-MB-435, in the test with K562, with NCI-H23, in the test with A549 and in the test on OVCAR-4 was > 100 µM (inactive) each time. The GI50 in the test with NCI/ADR-RES and with ACHN was > 100 µM (inactive) in each case.

`O=C1C(Br)=Cc2c(Cl)sc(Cl)c21`: the GI50 in the test on Malme-3M was 8.67 µM (inactive); with HCT-15 it was 3.69 µM; in the test with SNB-19, 18.9 µM (inactive); in the test with MOLT-4 it was 0.515 µM (active); with U-251, 2.59 µM (inactive); in the test with OVCAR-3 it was 2.67 µM (inactive). Further, the GI50 in the test on CCRF-CEM is 0.232 µM (active); in the test on MDA-N it was 2.44 µM (inactive); with A498 it was 23.9 µM (inactive); in the test on Hs-578T, 21.8 µM (inactive); with HOP-62 it was 7.45 µM (inactive); with RXF 393, 2.46 µM (inactive). The GI50 is 1.77 µM (inactive) in the test with 786-0; 2.11 µM (inactive) in the test on MDA-MB-435; 1.07 µM (active) in the test on K562; 8.85 µM (inactive) in the test on NCI-H23; 24.6 µM (inactive) in the test on A549; 2.74 µM (inactive) in the test on OVCAR-4. Further, the GI50 with NCI/ADR-RES is 8.65 µM (inactive); in the test on ACHN, 2.91 µM (inactive).

Regarding `CC(=NNC(=S)Nc1ccc(C)cc1)c1cccc(C(C)=NNC(=S)Nc2ccc(C)cc2)n1`, the GI50 in the test with Malme-3M is 2.06 µM (inactive); in the test with HCT-15 it was 6.82 µM; with SNB-19 it was 36.3 µM (inactive); in the test with MOLT-4 it was 4.18 µM (inactive); with U-251, 31.3 µM (inactive); with OVCAR-3 it was 1.5 µM (inactive). For the same molecule, the GI50 is 7.5 µM (inactive) in the test with CCRF-CEM; 19.9 µM (inactive) with MDA-N; 20.9 µM (inactive) with A498; 41.1 µM (inactive) in the test with Hs-578T; 9.82 µM (inactive) in the test on HOP-62; 14.4 µM (inactive) in the test on RXF 393. Besides, the GI50 is 5.9 µM (inactive) in the test on 786-0; 13.6 µM (inactive) with MDA-MB-435; 12.2 µM (inactive) with K562; 22 µM (inactive) in the test with NCI-H23; 12.9 µM (inactive) in the test with A549; 10.9 µM (inactive) with OVCAR-4. Also, the results for the GI50 in the test with NCI/ADR-RES and in the test with ACHN were 5 µM (inactive) and 5.66 µM (inactive), respectively.

Regarding `O=C(CC1(O)C(=O)Nc2c(Cl)cc(Cl)cc21)c1cccc([N+](=O)[O-])c1` (stereo not given), the GI50 in the test on Malme-3M is 19.4 µM (inactive); in the test on HCT-15, 48.5 µM; in the test on SNB-19, > 73.1 µM (inactive); in the test with MOLT-4, 19.8 µM (inactive); with U-251 it was 27.7 µM (inactive); in the test on OVCAR-3, 25 µM (inactive). The GI50 in the test with CCRF-CEM is 17.4 µM (inactive); in the test with MDA-N, 18.9 µM (inactive); in the test with A498, 27.9 µM (inactive); in the test with Hs-578T, 30.6 µM (inactive); in the test with HOP-62, 50.6 µM (inactive); with RXF 393 it was 28.6 µM (inactive). The GI50 is 22.2 µM (inactive) in the test on 786-0; 5.12 µM (inactive) with MDA-MB-435; 19.8 µM (inactive) in the test on K562; 19.4 µM (inactive) with NCI-H23; 39.5 µM (inactive) with A549; 14.4 µM (inactive) with OVCAR-4. For the same molecule, the GI50 is 29 µM (inactive) in the test on NCI/ADR-RES and 23 µM (inactive) in the test with ACHN.

As for `COP(=O)(OC)C(NC=O)P(=O)(OC)OC`, the GI50 is > 100 µM (inactive) in the test with Malme-3M; greater than 100 µM with HCT-15; > 100 µM (inactive) with SNB-19; > 100 µM (inactive) in the test with MOLT-4; > 100 µM (inactive) in the test with U-251; > 100 µM (inactive) in the test with OVCAR-3. The GI50 in the test with CCRF-CEM, in the test with MDA-N, in the test with A498, in the test on Hs-578T, in the test with HOP-62 and in the test on RXF 393 was > 100 µM (inactive) in each case. Further, the GI50 with 786-0, with MDA-MB-435, in the test with K562, with NCI-H23, with A549 and in the test with OVCAR-4 was > 100 µM (inactive) each time. The GI50 with NCI/ADR-RES and with ACHN was > 100 µM (inactive) throughout.

As to `CC(C)=CCNc1ncnc2[nH]cnc12`, the GI50 with Malme-3M was > 100 µM (inactive); in the test on HCT-15, greater than 100 µM; with SNB-19 it was > 100 µM (inactive); in the test with MOLT-4 it was > 100 µM (inactive); in the test on U-251, > 100 µM (inactive); in the test on OVCAR-3, > 100 µM (inactive). Besides, the GI50 in the test on CCRF-CEM, in the test with MDA-N, in the test on A498, in the test with Hs-578T, in the test on HOP-62 and in the test on RXF 393 was > 100 µM (inactive) in each case. In addition, the GI50 in the test on 786-0, in the test with MDA-MB-435, in the test with K562, with NCI-H23, in the test with A549 and in the test on OVCAR-4 was > 100 µM (inactive) each time. For the same molecule, the GI50 in the test with NCI/ADR-RES and in the test on ACHN was > 100 µM (inactive) throughout.

For the molecule `c1ccc(C(OCCN2CC3CCC(C2)N3)c2ccccc2)cc1`, the GI50 in the test on Malme-3M was 16 µM (inactive); in the test with HCT-15 it was 47.6 µM; in the test with SNB-19, > 100 µM (inactive); in the test on MOLT-4, 74.8 µM (inactive); in the test with U-251, > 100 µM (inactive); in the test with OVCAR-3, 45 µM (inactive). Moreover, the GI50 in the test with CCRF-CEM is > 100 µM (inactive); with MDA-N, 26.4 µM (inactive); with A498, 74 µM (inactive); with Hs-578T it was 75.9 µM (inactive); in the test with HOP-62, > 100 µM (inactive); in the test with RXF 393, 43.8 µM (inactive). For the same molecule, the GI50 in the test on 786-0 is 41 µM (inactive); in the test with MDA-MB-435 it was 35.9 µM (inactive); in the test on K562 it was 43.8 µM (inactive); with NCI-H23 it was > 100 µM (inactive); in the test with A549, > 100 µM (inactive); in the test with OVCAR-4, > 100 µM (inactive). Moreover, the GI50 in the test on NCI/ADR-RES and in the test with ACHN was > 100 µM (inactive) throughout.

Regarding `COc1cccc(C23CCCC(C2)NCC3Br)c1OC` (stereo not given), the GI50 in the test with Malme-3M was > 100 µM (inactive); in the test with HCT-15 it was 40.9 µM; in the test with SNB-19, 42.3 µM (inactive); with MOLT-4, 45 µM (inactive); in the test on U-251, 28.4 µM (inactive); in the test with OVCAR-3 it was 34.5 µM (inactive). The GI50 with CCRF-CEM was 21.9 µM (inactive); in the test on MDA-N, 48.4 µM (inactive); with A498, 15.4 µM (inactive); in the test with Hs-578T, 19.7 µM (inactive); in the test with HOP-62, 38 µM (inactive); in the test with RXF 393, 92.3 µM (inactive). The GI50 with 786-0 was 81.3 µM (inactive); with MDA-MB-435, 39 µM (inactive); with K562, 21.5 µM (inactive); in the test on NCI-H23 it was 15.3 µM (inactive); in the test with A549 it was 3.66 µM (inactive); with OVCAR-4, 35 µM (inactive). Also, the GI50 is 31.1 µM (inactive) in the test on NCI/ADR-RES and 21 µM (inactive) with ACHN.

As to `CC1=CCC([C@@](C)(O)CCCC(C)(C)N=C=S)CC1` (stereo not given in full), the GI50 is 14.8 µM (inactive) in the test on Malme-3M; 18.5 µM in the test with HCT-15; 17.3 µM (inactive) with SNB-19; 21.5 µM (inactive) with MOLT-4; 18.8 µM (inactive) with U-251; 18.4 µM (inactive) in the test with OVCAR-3. Moreover, the GI50 is 22.2 µM (inactive) in the test on CCRF-CEM; 18.4 µM (inactive) with MDA-N; 15.3 µM (inactive) in the test on A498; 26.5 µM (inactive) with Hs-578T; 22.6 µM (inactive) in the test on HOP-62; 13.7 µM (inactive) with RXF 393. In addition, the GI50 with 786-0 was 17.7 µM (inactive); in the test with MDA-MB-435 it was 17.1 µM (inactive); with K562, 19.3 µM (inactive); with NCI-H23, 20.9 µM (inactive); in the test on A549 it was 17.6 µM (inactive); with OVCAR-4, 16.5 µM (inactive). Also, the values for the GI50 in the test on NCI/ADR-RES and with ACHN were 19.6 µM (inactive) and 16.8 µM (inactive), respectively.

`COC(=O)NC1C(C)OC(OC2C/C=C(/C)C3C=CC4C(OC5CC(OC6CC(O)C(OC7CC(O)C(OC)C(C)O7)C(C)O6)C(O)C(C)O5)C(C)CC(C)C4C3(C)C(=O)C3=C(O)C4(CC(C)C(CO)=CC4/C=C\2C)OC3=O)CC1(C)[N+](=O)[O-]` (stereo not given): the GI50 is 7.93 µM (inactive) with Malme-3M; 18 µM in the test on HCT-15; 19.1 µM (inactive) in the test with SNB-19; 3.72 µM (inactive) in the test with MOLT-4; 10.9 µM (inactive) with U-251; 6.84 µM (inactive) with OVCAR-3. For the same molecule, the GI50 in the test with CCRF-CEM was 2.79 µM (inactive); in the test on MDA-N it was 9.55 µM (inactive); in the test on A498, 15.6 µM (inactive); in the test with Hs-578T, 10.9 µM (inactive); with HOP-62, 15.4 µM (inactive); in the test with RXF 393, 12.3 µM (inactive). The GI50 was 9.93 µM (inactive) in the test on 786-0; 8.75 µM (inactive) in the test on MDA-MB-435; 4.41 µM (inactive) in the test with K562; 11.9 µM (inactive) with NCI-H23; 22.6 µM (inactive) in the test on A549; 3.48 µM (inactive) in the test on OVCAR-4. The GI50 was 69.5 µM (inactive) with NCI/ADR-RES and 12.6 µM (inactive) in the test on ACHN.

The values above are taken from ChEMBL document CHEMBL1201862, “PubChem BioAssay data set” (2004).
